Measured values reported in patent US6521628B1, “Fungicidal mixtures” (BASF Aktiengesellschaft, priority 1999, dated 2003).
Read-outs that look alike come from different tables or passages of the source.

What was measured:
Format in all cases: in vivo
[1] = test system: Erysiphe cichoracearum; test: Greenhouse test, 4 day residual, Erysiphe cichoracearum on cucumbers (Examples 6, 11, 14); conditions: Golovinomyces cichoracearum, 96 h, read-out: Observed Efficacy; for pest or weed control at 0.4 ppm: dose rate 0.4 ppm; for pest or weed control at 2 ppm: dose rate 2 ppm; for pest or weed control at 10 ppm: dose rate 10 ppm; for pest or weed control at 50 ppm: dose rate 50 ppm
Method: (§1) The trials are carried out under greenhouse (Examples 1 to 18) or field conditions (Example 19) in residual or curative applications. The fungicides are applied in single treatments, or in a combination comprising a benzophenone of formula I and a compound selected from the classes (A) through (E) as defined above. The compounds are applied in form of an aqueous spray mix obtained from concentrated formulation or the technical material.
(§2) 1. Seed is planted in 6 cm diameter plastic pots and maintained in the greenhouse.
(§3) 2. When the primary leaf is fully expanded in the case of cereals or several leaves are present in the case of dicots, formulated test compounds are sprayed with a three nozzle overhead fungicide sprayer to near run-off. Alternatively, a single nozzle overhead track sprayer is used for application of the compounds to cereals at a rate of 200 l/ha. Plants are then allowed to air-dry.
(§4) 3. Inoculation precedes treatment in the case of curative evaluations and follows treatment in case of residual evaluations.
(§5) For inoculation of powdery mildew disease, plants are set up on greenhouse benches with bottom watering mats and inoculated by dusting them with conidia from infected plants. Between inoculation and treatment for curative evaluations and between treatment and inoculation for residual evaluations, plants are maintained in the greenhouse with bottom watering.
(§6) 4. Disease on the foliage as percent leaf area with disease symptoms/signs is evaluated about 7 days after inoculation. In the case of wheat, the tips and bases of the leaves are excluded from the evaluation. [formula]
(§7) 1. Technical compounds are formulated in a solvent/surfactant system consisting of 5% acetone and 0.05% Tween 20 in deionized water. Compounds are dissolved in acetone prior to addition of the water; the Tween 20 can be added through either the acetone or the water. Dilutions are made using the solvent/surfactant system. Formulated compounds are prepared using deionized water.
(§8) Assessments of the diseases took place at the indicated day after the application of the compounds. Per cent infected leaf area infected was evaluated. The efficacy of the compounds/compounds mixtures to control the diseases was calculated by using the formula given above under item 4: […]
(§9) Synergy was calculated using the % disease control values of specific treatments for the two COLBY formula given hereinabove
Fungicidal Efficacy of the Mixture of BP-4+Other Fungicides (4 Day Residual) Against Erysiphe cichoracearum on Cucumbers
Fungicidal Efficacy of the Mixture of BP4+Other Fungicides (4 Day Residual) Against Erysiphe cichoracearum on Cucumbers

[2] = test system: Leptosphaeria nodorum; test: Greenhouse test, 4 day residual, Leptosphaeria nodorum on wheat (Examples 8, 10); conditions: Parastagonospora nodorum, 96 h, single compound, read-out: Observed Efficacy; for pest or weed control at 4 ppm: dose rate 4 ppm; for pest or weed control at 16 ppm: dose rate 16 ppm; for pest or weed control at 64 ppm: dose rate 64 ppm; for pest or weed control at 256 ppm: dose rate 256 ppm
Excerpt: as §1, with “The” for “The trials are carried out under greenhouse (Examples 1 to 18) or field conditions (Example 19) in residual or curative applications. The”
as §2, §3, §4
(§10) For inoculation of non-powdery mildew diseases, an aqueous spore suspension of the pathogen is applied to the plant and the plants are kept 1-2 days in a moist infection chamber before being returned to the greenhouse where they are maintained by bottom watering.
as §6, §7, §8, §9

[3] = test system: Pyrenophora teres; test: Greenhouse test, 4 day residual, Pyrenophora teres on barley (Examples 13, 16); conditions: 96 h, single product, read-out: Observed Efficacy; for pest or weed control at 0.4 ppm: dose rate 0.4 ppm; for pest or weed control at 2 ppm: dose rate 2 ppm; for pest or weed control at 10 ppm: dose rate 10 ppm; for pest or weed control at 50 ppm: dose rate 50 ppm
Method: as §1, §2, §3, §4, §10, §6, §7, §8, §9
Fungicidal Efficacy of the Mixture of BP4+Other Fungicides (4 Day Residual) Against Pyrenophora teres on barley
Fungicidal Efficacy of the Mixture of BP4+Other Fungicides (4 Day Residual) Against Pyrenophora teres on Barley

[4] = test system: Blumeria graminis f. sp. tritici; test: Greenhouse test, 2 day curative, Blumeria graminis f. sp. tritici on wheat (Example 17); conditions: Table XVII, single compound
Method: as §1, §2, §3, §4, §5, §6, §7, §8, §9
Fungicidal Efficacy of the Mixture of Different Benzophenones+Metconazole (2 Day Curative) Against Blumeria graminis f. sp. tritici on Wheat

[5] = test system: Puccinia recondita; test: Greenhouse test, 4 day residual, Puccinia recondita on wheat (Examples 7, 9, 12, 15); conditions: 96 h, read-out: Observed Efficacy; for pest or weed control at 0.4 ppm: dose rate 0.4 ppm; for pest or weed control at 2 ppm: dose rate 2 ppm; for pest or weed control at 10 ppm: dose rate 10 ppm; for pest or weed control at 50 ppm: dose rate 50 ppm; for pest or weed control at 4 ppm: dose rate 4 ppm; for pest or weed control at 16 ppm: dose rate 16 ppm
Method: as §1, §2, §3, §4, §10, §6, §7, §8, §9
Fungicidal Efficacy of the Mixture of BP-4+Other Fungicides (4 Day Residual) Against Puccinia recondita on Wheat
Fungicidal Efficacy of the Mixture of BP4+Other Fungicides (4 Day Residual) Against Puccinia recondita on Wheat
Fungicidal Efficacy of the Mixture of BP-4+Myclobutanil (4 Day Residual) Against Puccinia recondita on Wheat

[6] = test system: Uncinula necator; test: Greenhouse test, 1 day residual, Uncinula necator on vines (Example 18); conditions: Table XVIII, single compound
Method: as §1, §2, §3, §4, §5, §6, §7, §8, §9
Fungicidal Efficacy of the Mixture of BP-4+AP-4 (1 Day Residual) Against Uncinula necator on Vines

[7] = Example 14, Table XIV, single product, cucumbers
[8] = Table XI, single compound or product
[9] = Example 15, Table XV, single product, wheat

Question: With `COc1cc(C)c(C(=O)c2c(C)ccc(Br)c2OC)c(OC)c1OC` [BP-4, 3-bromo-2′,6-dimethyl-2,4′,5′,6′-tetramethoxybenzophenone] as the molecule, how does the pest or weed control at 0.4 ppm [1, 7] read?
Answer: 0%

Question: And the pest or weed control at 2 ppm [1, 7]?
Answer: 0%

Question: What about the pest or weed control at 10 ppm [1, 7] of the same molecule?
Answer: 13%

Question: What about the pest or weed control at 50 ppm [1, 7] of the same molecule?
Answer: 97%

Question: And the pest or weed control at 1 ppm ([1]; Table VI, single compound, dose rate 1 ppm)?
Answer: 1%

Question: And the pest or weed control at 4 ppm ([1]; Table VI, single compound, dose rate 4 ppm)?
Answer: 6%

Question: What about the pest or weed control at 16 ppm ([1]; Table VI, single compound, dose rate 16 ppm) of the same molecule?
Answer: 51%

Question: And the pest or weed control at 64 ppm ([1]; Table VI, single compound, dose rate 64 ppm)?
Answer: 100%

Question: And the pest or weed control at 0.4 ppm [1, 8]?
Answer: 0%

Question: And the pest or weed control at 2 ppm [1, 8]?
Answer: 2%

Question: What about the pest or weed control at 10 ppm [1, 8] of the same molecule?
Answer: 55%

Question: What about the pest or weed control at 50 ppm [1, 8] of the same molecule?
Answer: 96%

Question: What about the pest or weed control at 4 ppm ([2]; Table VIII) of the same molecule?
Answer: 0%

Question: And the pest or weed control at 16 ppm ([2]; Table VIII)?
Answer: 0%

Question: And the pest or weed control at 64 ppm ([2]; Table VIII)?
Answer: 14%

Question: What about the pest or weed control at 256 ppm ([2]; Table VIII) of the same molecule?
Answer: 34%

Question: What about the pest or weed control at 4 ppm ([2]; Table X) of the same molecule?
Answer: 0%

Question: And the pest or weed control at 16 ppm ([2]; Table X)?
Answer: 10%

Question: And the pest or weed control at 64 ppm ([2]; Table X)?
Answer: 18%

Question: And the pest or weed control at 256 ppm ([2]; Table X)?
Answer: 44%

Question: And the pest or weed control at 0.4 ppm ([3]; Example 13, Table XIII)?
Answer: 0%

Question: What about the pest or weed control at 2 ppm ([3]; Example 13, Table XIII) of the same molecule?
Answer: 0%

Question: And the pest or weed control at 10 ppm ([3]; Example 13, Table XIII)?
Answer: 34%

Question: What about the pest or weed control at 50 ppm ([3]; Example 13, Table XIII) of the same molecule?
Answer: 58%

Question: And the pest or weed control at 0.4 ppm ([3]; Example 16, Table XVI)?
Answer: 0%

Question: And the pest or weed control at 2 ppm ([3]; Example 16, Table XVI)?
Answer: 0%

Question: What about the pest or weed control at 10 ppm ([3]; Example 16, Table XVI) of the same molecule?
Answer: 0%

Question: And the pest or weed control at 50 ppm ([3]; Example 16, Table XVI)?
Answer: 11%

Question: What about the “Observed Efficacy” value ([4]; dose rate 0.67 ppm) of the same molecule?
Answer: 9%

Question: And the “Observed Efficacy” value ([4]; dose rate 2 ppm)?
Answer: 27%

Question: What about the “Observed Efficacy” value ([4]; dose rate 6 ppm) of the same molecule?
Answer: 42%

Question: And the “Observed Efficacy” value ([4]; dose rate 18 ppm)?
Answer: 78%

Question: And the “Observed Efficacy” value ([4]; dose rate 54 ppm)?
Answer: 92%

Question: What about the pest or weed control at 0.4 ppm [5, 9] of the same molecule?
Answer: 0%

Question: And the pest or weed control at 2 ppm [5, 9]?
Answer: 0%

Question: What about the pest or weed control at 10 ppm [5, 9] of the same molecule?
Answer: 6%

Question: What about the pest or weed control at 50 ppm [5, 9] of the same molecule?
Answer: 12%

Question: What about the pest or weed control at 4 ppm ([5]; Table IX, single compound) of the same molecule?
Answer: 6%

Question: What about the pest or weed control at 16 ppm ([5]; Table IX, single compound) of the same molecule?
Answer: 4%

Question: And the pest or weed control at 64 ppm ([5]; Table IX, single compound, dose rate 64 ppm)?
Answer: 16%

Question: What about the pest or weed control at 256 ppm ([5]; Table IX, single compound, dose rate 256 ppm) of the same molecule?
Answer: 38%

Question: And the pest or weed control at 4 ppm ([5]; Table VII, single compound)?
Answer: 0%

Question: And the pest or weed control at 16 ppm ([5]; Table VII, single compound)?
Answer: 0%

Question: What about the pest or weed control at 0.4 ppm ([5]; Table XII, single compound) of the same molecule?
Answer: 2%

Question: And the pest or weed control at 2 ppm ([5]; Table XII, single compound)?
Answer: 7%

Question: What about the pest or weed control at 10 ppm ([5]; Table XII, single compound) of the same molecule?
Answer: 10%

Question: What about the pest or weed control at 50 ppm ([5]; Table XII, single compound) of the same molecule?
Answer: 31%

Question: What about the “Observed Efficacy” value ([6]; dose rate 0.25 ppm) of the same molecule?
Answer: 0%

Question: What about the “Observed Efficacy” value ([6]; dose rate 0.5 ppm) of the same molecule?
Answer: 21%

Question: What about the “Observed Efficacy” value ([6]; dose rate 1 ppm) of the same molecule?
Answer: 28%

Question: What about the “Observed Efficacy” value ([6]; dose rate 2 ppm) of the same molecule?
Answer: 9%

Question: What about the “Observed Efficacy” value ([6]; dose rate 4 ppm) of the same molecule?
Answer: 43%

Question: And the “Observed Efficacy” value ([6]; dose rate 8 ppm)?
Answer: 42%

Question: With `CC(C1CC1)C(O)(Cn1cncn1)c1ccc(Cl)cc1` (stereo not drawn) [Cyproconazole] as the molecule, how does the pest or weed control at 0.4 ppm [5, 9] read?
Answer: 58%
